Assay results reported in patent US10351546B2, “Pyridin-3-yl acetic acid derivatives as inhibitors of human immunodeficiency virus replication” (priority 2015, dated 2019).
Where two headings read alike, the source gives them in different places.

Tested on: NL-RLuc virus
Experiment: Inhibition of HIV replication (NL-RLuc luciferase reporter virus in MT-2 cells)
Format: cell-based
Text: Inhibition of HIV replication: A recombinant NL-RLuc proviral clone was constructed in which a section of the nef gene form NL4-3 was replaced with the Renilla Luciferase gene. This virus is fully infectious and can undergo multiple cycles of replication in cell culture. In addition, the luciferous reporter provides a simple and easy method for quantitating the extent of virus growth and consequently, the antiviral activity of test compounds. The plasmid pNLRLuc contains the proviral NL-Rluc DNA cloned into pUC18 at the PvuII site. The NL-RLuc virus was prepared by transfection of 293T cells with the plasmid pNLRLuc. Transfections were performed using the LipofectAMINE PLUS kit form Invitrogen (Carlsbad, Calif.) according to the manufacturer and the virus generated was titered in MT-2 cells. For susceptibility analyses, the titrated virus was used to infect MT-2 cells in the presence of compound, and after 5 days of incubation, cells were processed and quantitated for virus growth by the amount of expressed luciferase. Assay media was RPMI 1640 supplemented with 10% heat inactivated fetal bovine serum (FBS), 100 units/ml penicillin G/100 units/ml streptomycin, 10 mM HEPES buffer pH 7.55 and 2 mM L-glutamine. The results form at least 2 experiments were used to calculate the EC50 values. Luciferase was quantitated using the Dual Luciferase kit form Promega (Madison, Wis.). Susceptibility of viruses to compounds was determined by incubation in the presence of serial dilutions of the compound. The 50% effective concentration (EC50) was calculated by using the exponential form of the median effect equation where (Fa)=1/[1+(ED50/drug conc.)^m](Johnson V A, Byington R T. Infectivity Assay. In Techniques in HIV Research. ed. Aldovini A, Walker B D. 71-76. New York: Stockton Press. 1990). Activity equal to A refers to a compound having an EC50≤100 nM, while B and C denote compounds having an EC50 between 100 nM and 1 uM (B) or >1 uM (C).

[1] = Human immunodeficiency virus 1, MT2, 120 h, read-out: Activity
[2] = read-out: Activity, NL-RLuc virus in MT-2 cells, 5 days of incubation, luciferase readout
[3] = Human immunodeficiency virus 1, MT2, 120 h, read-out: EC50 μM

SMILES	EC50 [1] [µM]	EC50 [2] [µM]	EC50 [3] [µM]
Cc1nc(O)c(-c2ccc(OCCc3ccc(F)cc3)cc2)c(N2CCC(C)(C)CC2)c1[C@H](OC(C)(C)C)C(=O)O (single isomer, unassigned) [Example 50]	< 0.1	–	–
COc1nc(C)c([C@H](OC(C)(C)C)C(=O)O)c(N2CCC(C)(C)CC2)c1-c1ccc(OCCc2ccc(F)cc2)cc1 (single isomer, unassigned) [Example 51]	< 0.1	–	–
Cc1nc(Cl)c(-c2ccc(OCCc3ccc(F)cc3)cc2)c(N2CCC(C)(C)CC2)c1[C@H](OC(C)(C)C)C(=O)O (single isomer, unassigned) [Example 52]	< 0.1	–	–
Cc1cc(F)ccc1CN1CCc2cc(-c3c(C(C)N(C)CC4CCOCC4)nc(C)c([C@H](OC(C)(C)C)C(=O)O)c3N3CCC(C)(C)CC3)ccc2C1 (single isomer, unassigned) [Example 150]	< 0.1	–	–
Cc1cc(F)ccc1CN1CCc2cc(-c3c(C(C)N(C)CC4CCOCC4)nc(C)c([C@H](OC(C)(C)C)C(=O)O)c3N3CCC(C)(C)CC3)ccc2C1 (single isomer, unassigned) [Example 151]	–	< 0.1	–
Cc1cc(F)ccc1CN1CCc2cc(-c3c(C(C)O)nc(C)c([C@H](OC(C)(C)C)C(=O)O)c3N3CCC(C)(C)CC3)ccc2C1 (single isomer, unassigned) [Example 152]	< 0.1	–	–
Cc1cc(F)ccc1CN1CCc2cc(-c3c(C(C)O)nc(C)c([C@H](OC(C)(C)C)C(=O)O)c3N3CCC(C)(C)CC3)ccc2C1 (single isomer, unassigned) [Example 153]	–	< 0.1	–
Cc1nc(CO)c([C@H](OC(C)(C)C)C(=O)O)c(N2CCC(C)(C)CC2)c1-c1ccc(OCCc2ccc(F)cc2)cc1 [Example 1, (S)-2-(tert-Butoxy)-2-(4-(4,4-dimethylpiperidin-1-yl)-5-(4-(4-fluorophenethoxy)phenyl)-2-(hydroxymethyl)-6-methylpyridin-3-yl)acetic acid]	< 0.1	–	0.003
Cc1nc(CO)c(-c2ccc(OCCc3ccc(F)cc3)cc2)c(N2CCC(C)(C)CC2)c1[C@H](OC(C)(C)C)C(=O)O [Example 2, (S)-2-(tert-Butoxy)-2-(4-(4,4-dimethylpiperidin-1-yl)-5-(4-(4-fluorophenethoxy)phenyl)-6-(hydroxymethyl)-2-methylpyridin-3-yl)acetic acid]	< 0.1	–	–
COCc1nc(C)c([C@H](OC(C)(C)C)C(=O)O)c(N2CCC(C)(C)CC2)c1-c1ccc(OCCc2ccc(F)cc2)cc1 [Example 3, (S)-2-(tert-Butoxy)-2-(4-(4,4-dimethylpiperidin-1-yl)-5-(4-(4-fluorophenethoxy)phenyl)-6-(methoxymethyl)-2-methylpyridin-3-yl)acetic acid]	< 0.1	–	–
Cc1nc(C(F)F)c(-c2ccc(OCCc3ccc(F)cc3)cc2)c(N2CCC(C)(C)CC2)c1[C@H](OC(C)(C)C)C(=O)O [Example 4, (S)-2-(tert-Butoxy)-2-(6-(difluoromethyl)-4-(4,4-dimethylpiperidin-1-yl)-5-(4-(4-fluorophenethoxy)phenyl)-2-methylpyridin-3-yl)acetic acid]	< 0.1	–	–
Cc1nc(CF)c(-c2ccc(OCCc3ccc(F)cc3)cc2)c(N2CCC(C)(C)CC2)c1[C@H](OC(C)(C)C)C(=O)O [Example 5, (S)-2-(tert-Butoxy)-2-(4-(4,4-dimethylpiperidin-1-yl)-6-(fluoromethyl)-5-(4-(4-fluorophenethoxy)phenyl)-2-methylpyridin-3-yl)acetic acid]	< 0.1	–	–
Cc1nc(COc2ccc(Cl)cc2)c(-c2ccc(OCCc3ccc(F)cc3)cc2)c(N2CCC(C)(C)CC2)c1[C@H](OC(C)(C)C)C(=O)O [Example 6, (S)-2-(tert-butoxy)-2-(6-((4-chlorophenoxy)methyl)-4-(4,4-dimethylpiperidin-1-yl)-5-(4-(4-fluorophenethoxy)phenyl)-2-methylpyridin-3-yl)acetic acid]	< 0.1	–	0.02
Cc1nc(COCC2COC2)c(-c2ccc(OCCc3ccc(F)cc3)cc2)c(N2CCC(C)(C)CC2)c1[C@H](OC(C)(C)C)C(=O)O [Example 7, (S)-2-(tert-Butoxy)-2-(4-(4,4-dimethylpiperidin-1-yl)-5-(4-(4-fluorophenethoxy)phenyl)-2-methyl-6-((oxetan-3-ylmethoxy)methyl)pyridin-3-yl)acetic acid]	< 0.1	–	–
CCOCc1nc(C)c([C@H](OC(C)(C)C)C(=O)O)c(N2CCC(C)(C)CC2)c1-c1ccc(OCCc2ccc(F)cc2)cc1 [Example 8, (S)-2-(tert-Butoxy)-2-(4-(4,4-dimethylpiperidin-1-yl)-6-(ethoxymethyl)-5-(4-(4-fluorophenethoxy)phenyl)-2-methylpyridin-3-yl)acetic acid]	< 0.1	–	–
Cc1nc(COC(C)C)c(-c2ccc(OCCc3ccc(F)cc3)cc2)c(N2CCC(C)(C)CC2)c1[C@H](OC(C)(C)C)C(=O)O [Example 9, (S)-2-(tert-Butoxy)-2-(4-(4,4-dimethylpiperidin-1-yl)-5-(4-(4-fluorophenethoxy)phenyl)-6-(isopropoxymethyl)-2-methylpyridin-3-yl)acetic acid]	< 0.1	–	–
CCOCCOCc1nc(C)c([C@H](OC(C)(C)C)C(=O)O)c(N2CCC(C)(C)CC2)c1-c1ccc(OCCc2ccc(F)cc2)cc1 [Example 10, (S)-2-(tert-Butoxy)-2-(4-(4,4-dimethylpiperidin-1-yl)-6-((2-ethoxyethoxy)methyl)-5-(4-(4-fluorophenethoxy)phenyl)-2-methylpyridin-3-yl)acetic acid]	< 0.1	–	–
Cc1nc(COC2CCCC2)c(-c2ccc(OCCc3ccc(F)cc3)cc2)c(N2CCC(C)(C)CC2)c1[C@H](OC(C)(C)C)C(=O)O [Example 11, (S)-2-(tert-Butoxy)-2-(6-((cyclopentyloxy)methyl)-4-(4,4-dimethylpiperidin-1-yl)-5-(4-(4-fluorophenethoxy)phenyl)-2-methylpyridin-3-yl)acetic acid]	< 0.1	–	–
Cc1nc(COC2CCOCC2)c(-c2ccc(OCCc3ccc(F)cc3)cc2)c(N2CCC(C)(C)CC2)c1[C@H](OC(C)(C)C)C(=O)O [Example 12, (S)-2-(tert-Butoxy)-2-(4-(4,4-dimethylpiperidin-1-yl)-5-(4-(4-fluorophenethoxy)phenyl)-2-methyl-6-(((tetrahydro-2H-pyran-4-yl)oxy)methyl)pyridin-3-yl)acetic acid]	< 0.1	–	–
Cc1nc(COCC2CCCC2)c(-c2ccc(OCCc3ccc(F)cc3)cc2)c(N2CCC(C)(C)CC2)c1[C@H](OC(C)(C)C)C(=O)O [Example 13, (S)-2-(tert-Butoxy)-2-(6-((cyclopentylmethoxy)methyl)-4-(4,4-dimethylpiperidin-1-yl)-5-(4-(4-fluorophenethoxy)phenyl)-2-methylpyridin-3-yl)acetic acid]	< 0.1	–	–
Cc1nc(COCc2ncco2)c(-c2ccc(OCCc3ccc(F)cc3)cc2)c(N2CCC(C)(C)CC2)c1[C@H](OC(C)(C)C)C(=O)O [Example 14, (S)-2-(tert-Butoxy)-2-(4-(4,4-dimethylpiperidin-1-yl)-5-(4-(4-fluorophenethoxy)phenyl)-2-methyl-6-((oxazol-2-ylmethoxy)methyl)pyridin-3-yl)acetic acid]	< 0.1	–	–
Cc1nc(COc2cccc(Cl)c2)c(-c2ccc(OCCc3ccc(F)cc3)cc2)c(N2CCC(C)(C)CC2)c1[C@H](OC(C)(C)C)C(=O)O [Example 15, (S)-2-(tert-Butoxy)-2-(6-((3-chlorophenoxy)methyl)-4-(4,4-dimethylpiperidin-1-yl)-5-(4-(4-fluorophenethoxy)phenyl)-2-methylpyridin-3-yl)acetic acid]	< 0.1	–	0.051
